This is an account of results in ChEMBL document CHEMBL1144678, “Thiahomoisocitrate: a highly potent inhibitor of homoisocitrate dehydrogenase involved in the alpha-aminoadipate pathway” (Bioorg Med Chem, 2008).

SMILES strings stand for the structures. pKi: −log10 of the molar value.

The nature of assay [1]: Inhibition of Saccharomyces cerevisiae homoisocitrate dehydrogenase.
The next assay has as its system Saccharomyces cerevisiae. The assay can be described thus: Activity of Saccharomyces cerevisiae homoisocitrate dehydrogenase.

In assay [1], `O=C(O)CSCC(=O)C(=O)O` gave a pKi of 4.92. `O=C(O)CO[C@H](C(=O)O)[C@@H](O)C(=O)O`: in assay [1], the pKi was 5.00. In addition, in the assay with Saccharomyces cerevisiae, the Km was determined as 20 µM and the kcat worked out at 0.59 s⁻¹. As for `O=C(O)CN[C@H](C(=O)O)[C@@H](O)C(=O)O`, in the assay on Saccharomyces cerevisiae, the Km is 150 µM and the kcat was 2 s⁻¹. In assay [1], `O=C(O)CS[C@H](C(=O)O)[C@@H](O)C(=O)O` had a pKi of 7.01.

By pKi is commonly meant −log10 of the Ki, conventionally taken in molar units. Higher therefore signals a low Ki. One may read the Km as the concentration of substrate that gives half-maximal velocity. As usually defined, the kcat is the maximal rate divided by the concentration of active sites.
